The results in this text go back to article PMC5816626, “A multitarget approach to drug discovery inhibiting Mycobacterium tuberculosis PyrG and PanK” (Scientific Reports, 2018).

Type in all cases: cell-based, Mycobacterium tuberculosis
Assay [1] concerns M. tuberculosis 88.3, 88.4, 88.5, 88.9, 88.11, 88.12 mutants (coaA A620G (Q207R)).
Assay [2] concerns M. tuberculosis 88.1 mutant (coaA A620G (Q207R)).
Assay [3] concerns M. tuberculosis 82.21 mutant (ethA Δ1283–4, coaA A620G (Q207R)).
For assay [4], the system named is M. tuberculosis 88.2 mutant (coaA A620G (Q207R)).
The test system of assay [5] is M. tuberculosis 81.10 mutant (ethA Δ1109–1137).

≈ marks a conversion by molar mass, not a printed value.

With `Cc1ccc(C(=O)Nc2ccc([N+](=O)[O-])cc2)s1` [compound 7947882, 5-methyl-N-(4-nitrophenyl)thiophene-2-carboxamide], the MIC in assay [1] is 2.5 µg/mL (≈ 9.53 µM); in assay [2], 2.5 µg/mL (≈ 9.53 µM); in assay [3] it was above 40 µg/mL; in assay [4], 2.5 µg/mL (≈ 9.53 µM); in assay [5], above 40 µg/mL.

Regarding `CCc1cc(C(N)=S)ccn1` [Ethionamide, reference compound], the minimum inhibitory concentration (MIC) in assay [1] was 1 µg/mL (≈ 6.02 µM); in assay [2] it was 1 µg/mL (≈ 6.02 µM); in assay [3], 10 µg/mL (≈ 60.2 µM); in assay [4] it was 1 µg/mL (≈ 6.02 µM); in assay [5] it was 10 µg/mL (≈ 60.2 µM).

On to `O=C(CCc1ccccc1)NC(=S)Nc1ccc(N2CCCCC2)cc1` [compound 7904688, 3-phenyl-N-[(4-piperidin-1-ylphenyl)carbamothioyl]propanamide], for which the minimal inhibitory concentration (MIC) in assay [1] is 10 µg/mL (≈ 27.2 µM); in assay [2] it was 10 µg/mL (≈ 27.2 µM); in assay [3], above 40 µg/mL; in assay [4], 10 µg/mL (≈ 27.2 µM); in assay [5], above 40 µg/mL.

In the case of `CC1=CC=C(C(=O)Nc2ccc([N+](=O)[O-])cc2)S1(=O)=O` [compound 11426026], the MIC in assay [1] is 2.5 µg/mL (≈ 8.5 µM); in assay [2], 2.5 µg/mL (≈ 8.5 µM); in assay [3], 2.5 µg/mL (≈ 8.5 µM); in assay [4] it was 2.5 µg/mL (≈ 8.5 µM); in assay [5] it was 1 µg/mL (≈ 3.4 µM).
